Measured values: article PMC9927515, “Discovery and Mechanism of Action of a Novel Antimicrobial Peptide from an Earthworm” (Microbiology Spectrum, 2023)
Where no end group is shown, it is not given here.

What was measured:
[1] = Sensitivity to pH (residual antibacterial rate); format: physicochemical; settings: pH adjusted to 2-12, back to 7.4 after 1 h; residual antibacterial rate by MIC method, OD600; especially in E. coli; Fig. S2b
Procedure: (§1) The AMP was treated for 1 h with a water bath heated at 50, 60, 70, 80, 90, or 100°C to evaluate temperature sensitivity, while the pH was adjusted to 2, 4, 6, 8, 10, and 12 and then back to 7.4 after 1 h to evaluate pH sensitivity. The changes in antibacterial activity were determined using the MIC method, as follows: antibacterial rate = [(OD600 positive control − OD600 sample)/(OD600 positive control − OD600 negative control)] × 100, where OD600 is the optical density at 600 nm.
(§2) Table S1 Sequences of 21 synthetic peptides
(§3) Table S3 Sequences and MICs of derivatives of EWAMP.15
(§4) Table S4 Sequences and MICs of Alanine scanning derivatives
(§5) Table S5 Sequences and MICs of Arg and Lys derivatives
(§6) Table S6 Summary of membrane thickness
(§7) Table S7 Primers used in RT-PCR
(§8) Fig. S1 MICs of EWAMP.15 12 -24 derivatives that were replaced in different sites. In
(§9) the X-axis, the number and the letter represent the replaced site and the amino acid residue.
(§10) Fig. S2 Physical stability and in vitro toxicity of EWAMP-R. (a) Residual antibacterial
(§11) rates after water heating for 1 h showing the temperature stability. (b) Residual antibacterial
(§12) rates after acid or alkaline solution treatment showing the pH stability. (c) Hemolytic
(§13) and negative controls. (d) Cell survival rate of LO2 after EWAMP-R treatment. All the cell
(§14) survival rate was above 95%.
(§15) Fig. S3 Root-mean-squared deviation (RMSD) and root-mean-squared fluctuation […]

sheep blood = format: cell-based
Procedure: Sterile defibrinated sheep blood (Titan, Shanghai, China) was kept at 4°C and was used within 3 days after being received. Hemolysis assessment was conducted following the method of Liu et al. ([34]). The hemolysis rate was calculated using the following formula: hemolysis rate = [([…] sample - […] blank)/([…] 0.2% Triton X-100 - […] blank)] × 100.

[2] = Sensitivity to temperature (residual antibacterial rate); format: physicochemical; settings: water bath 50-100°C for 1 h; residual antibacterial rate by MIC method, OD600; especially in E. coli; Fig. S2a
Procedure: as §1, §2, §3, §4, §5, §6, §7, §8, §9, §10, §11, §12, §13, §14, §15

## RIWWSGGWRRWRW [EWAMP-R]
[1]
  stability of antibacterial activity under pH changes: comparative stability
Sheep blood
  hemolytic activity: absorbance in treatment groups versus negative controls: not significantly different
[2]
  stability of antibacterial activity under temperature changes: comparative stability
